Results published in patent publication US7858105B2, “Inhibitors of melanocyte tyrosinase as topical skin lighteners” (Mediquest Therapeutics, Inc., priority 2000, dated 2010).
≈ marks a conversion by molar mass, not a printed value. Where two headings read alike, the source gives them in different places.

Assays:
mammalian tyrosinase [1] = biological target: T1, mammalian tyrosinase (Mus musculus, UniProt P11344); test: cell-free mammalian-enzyme assay system (tyrosinase inhibition, Mel-Ab cell lysates); assay type: biochemical; conditions: read-out: E: concentration of compound that produces 50% pigment inhibition in the cell-free mammalian-enzyme assay system
T1 construct: Cellular lysates of Mel-Ab cells may be used as tyrosinase enzyme preparations; endogenous in cells; host or cells: Mel-Ab mouse melanocytes (C57BL/6-derived), cell lysate
T1 sequence (P11344 19-533): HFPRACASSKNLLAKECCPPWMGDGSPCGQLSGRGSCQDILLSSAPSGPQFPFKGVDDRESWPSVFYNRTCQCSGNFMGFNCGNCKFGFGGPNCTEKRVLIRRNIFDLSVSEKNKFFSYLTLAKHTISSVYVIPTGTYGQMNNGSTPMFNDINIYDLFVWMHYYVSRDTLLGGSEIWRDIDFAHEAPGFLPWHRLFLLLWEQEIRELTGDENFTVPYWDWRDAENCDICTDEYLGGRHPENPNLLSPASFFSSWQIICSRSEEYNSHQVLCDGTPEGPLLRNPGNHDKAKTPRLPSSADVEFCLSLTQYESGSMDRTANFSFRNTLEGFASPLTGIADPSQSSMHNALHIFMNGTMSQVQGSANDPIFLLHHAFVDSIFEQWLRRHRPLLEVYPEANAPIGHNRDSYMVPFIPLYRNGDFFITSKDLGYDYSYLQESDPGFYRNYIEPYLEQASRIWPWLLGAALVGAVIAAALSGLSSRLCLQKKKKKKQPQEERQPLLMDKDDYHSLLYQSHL
From the text: (§1) In the present invention, one or all of three in vitro bioassays can be utilized to evaluate the efficacy and toxicity of candidate skin-lightening compounds. The three bioassays characterize the compounds with regard to mammalian tyrosinase enzyme inhibition (cell free), pigmentation in melanocyte cultured cells, and cytotoxicity of mammalian cultured cells. Both cell-based pigmentation and cell-free enzymatic assays have been developed using the mammalian melanocyte cell line, Mel-Ab, a C57BL/6 mouse-derived cell line that produces high levels of melanin. A distinct advantage of this approach is that humans share substantial sequence similarities in their genes (DNA) and proteins (such as tyrosinase) with mice, relative to non-mammalian species (e.g., mushrooms). So, mouse Mel-Ab melanocytes can serve as adequate surrogates for human melanocytes for many pharmacologic purposes.
(§2) These adherent murine melanocytes are grown on tissue culture plastic in medium supplemented with fetal bovine serum, 12-O-tetradecanoylphorbol-13-acetate (TPA) to stimulate cell division via down-regulation of protein kinase C, [22, 23] and cholera toxin to stimulate adenylate cyclase activity in the absence of α-MSH. Cellular lysates of Mel-Ab cells may be used as tyrosinase enzyme preparations. Multi-well plate assays have been validated for enzyme inhibition (e.g., DOPA oxidation by colorimetric measurement or radiolabeled substrate incorporation into melanin) and for pigmentation assays on cultured Mel-Ab cells. After 4 days of treatment of cultured cells, melanin content is determined using a spectrophotometer at 400+ nm. This assay can detect an apparent loss in pigmentation resulting from either inhibition of de novo synthesis (e.g. via inhibition of tyrosinase, or the adenylate cyclase pathway, or another pathway) or a cytostatic/cytotoxic mechanism. It is therefore a broad primary screen. It is used in parallel with the tyrosinase enzymatic assay to determine whether an inhibitor of pigmentation at the cellular level is acting primarily at the enzyme level.
A distinct advantage of the screening systems (developed by the inventors of the present invention) is the focus on mammalian tyrosinase, as opposed to non-mammalian enzymes often used by other investigators, such as mushroom tyrosinase. Since the biochemical and pharmacologic characteristics of an enzyme or isozyme can vary dramatically between species of organisms (e.g., due to dissimilarities in primary, secondary, and tertiary structure), it is highly preferable that candidate topical skin lighteners intended for human use be discovered based on their biochemical action against a mammalian source of the enzyme. Mushroom tyrosinase (and in some instances plant polyphenol oxidases) has been used in the vast majority of prior inhibitor studies. […] Thus, the methods reported by the inventors of the present invention for screening against mammalian tyrosinase or within melanocytes is highly preferred over other possible screening strategies.
The substrate kinetic “affinity” of mammalian tyrosinase for L-tyrosine is approximately KM=600 μM. A potentially effective candidate skin lightening agent is considered to be desirable, active, and/or functional if it renders 50% inhibition of mammalian tyrosinase enzyme activity, at concentrations below half the enzyme's “affinity” for tyrosine in cell-free enzyme extracts (IC50≦300 μM) and pigment production in melanocyte cell cultures (IC50≦300 μM).
(§3) A first class of compounds based upon the template compound benzimidazolethiol (lower left structure) were tested for tyrosinase inhibition, cell culture pigment inhibition, and toxicity, by methods described in Curto, E. V., et al. (1999).

Mel-Ab melanocytes [2] = test: mammalian-melanocyte-culture pigment assay system; assay type: cell-based, mouse; conditions: read-out: P: concentration of compound that produces 50% inhibition in the mammalian-melanocyte-culture pigment assay system
From the text: as §1, §2, §3

Mel-Ab melanocytes [3] = test: mammalian-melanocyte-culture toxicity assay system; assay type: cell-based, mouse; conditions: read-out: T: concentration of compound that kills 50% of cells in the mammalian-melanocyte-culture toxicity assay system
From the text: as §1
[6] It should be noted that many inhibitors identified in cell-free enzymatic assays might have subsequent difficulties with toxicity or delivery in melanocyte cell-based assays. Therefore, all three in vitro assays in combination provide an excellent characterization of candidate skin lightening compounds.
as §3

[4] = UV absorbance: extinction coefficient at wavelength of maximum absorbency; assay type: physicochemical; conditions: for compound extinction coefficient ε: at λmax
mammalian tyrosinase [5] = biological target: T1, mammalian tyrosinase; conditions: cited from earlier work
Mel-Ab melanocytes [6] = conditions: cited from earlier work
Mel-Ab melanocytes [7] = conditions: cited from earlier work; remark: listed apart in the source
Salmonella = conditions: cited from earlier work
[8] = test system: Chinese hamster V79 cells; conditions: cited from earlier work
[9] = compared with HQ; cited from earlier work

Sc1nc2ccccc2s1 [ID # 040]
IC50 (mammalian tyrosinase [1]): 8 µM

CC(=O)Nc1ccc(SC(C)=O)cc1 [ID # 148]
IC50 (mammalian tyrosinase [1]): 500 µM
IC50 (Mel-Ab melanocytes [2]): 30 µM
IC50 (Mel-Ab melanocytes [3]): 125 µM
wavelength of maximum absorbency λmax [4]: 255 nm
compound extinction coefficient ε [4]: 3300 OD/M × cm

NC(=S)Nc1ccccc1 [ID # 033]
IC50 (mammalian tyrosinase [1]): 2 µM
IC50 (Mel-Ab melanocytes [2]; Mus musculus, Mel-Ab): 12 µM
IC50 (Mel-Ab melanocytes [3]; Mus musculus, Mel-Ab): > 1000 µM

COc1ccc(N)cc1OC [ID # 006]
IC50 (mammalian tyrosinase [1]): 110 µM
IC50 (Mel-Ab melanocytes [2]; Mus musculus, Mel-Ab): 182 µM
IC50 (Mel-Ab melanocytes [3]; Mus musculus, Mel-Ab): > 1000 µM

CCOc1ccc2nc(S)sc2c1 [ID # 091]
IC50 (mammalian tyrosinase [1]): > 1000 µM
IC50 (Mel-Ab melanocytes [2]): > 1000 µM
IC50 (Mel-Ab melanocytes [3]): > 1000 µM

Oc1ccc(O)cc1 [hydroquinone]
inhibition of the mammalian tyrosinase enzyme (in words) (mammalian tyrosinase [5]): minimal enzymatic inhibition
inhibition of the mammalian tyrosinase enzyme (in words) (mammalian tyrosinase [5]; listed as HQ): not an effective inhibitor
IC50 on Mel-Ab culture (Mel-Ab melanocytes [6]; positive control, owing to cytotoxicity, not inhibition of pigmentation per se): low micrograms per milliliter range
cytotoxicity to cultured mammalian melanocytes (in words) (Mel-Ab melanocytes [7]): potent cytotoxicity
cytotoxicity to cultured mammalian melanocytes (in words) (Mel-Ab melanocytes [7]; listed as HQ): cytotoxic
mutagenicity in Salmonella (Salmonella): mutagenic
mutagenicity in mammalian Chinese hamster V79 cells [8]: mutagenic

CSc1ccc(S)cc1 [ID # 102]
IC50 (mammalian tyrosinase [1]): 0.24 µM
IC50 (Mel-Ab melanocytes [2]; Mus musculus, Mel-Ab): 115 µM
IC50 (Mel-Ab melanocytes [3]; Mus musculus, Mel-Ab): 126 µM
wavelength of maximum absorbency λmax [4]: 280 nm
compound extinction coefficient ε [4]: 2300 OD/M × cm

COC(=O)c1cc(O)ccc1O [methyl gentisate]
IC50 against tyrosinase activity in cell-free assays (mammalian tyrosinase [5]; Curto et al. (1999)): 11.2 ± 4 µg/mL (≈ 66.6 µM)
IC50 in melanocyte cell cultures (Mel-Ab melanocytes [6]; Curto et al. (1999)): 30.9 ± 5 µg/mL (≈ 184 µM)
inhibition of melanin accumulation (in words) (Mel-Ab melanocytes [6]; murine melanocyte cell culture primary screen): moderately potent inhibitor
melanocyte cytotoxicity IC50 (Mel-Ab melanocytes [7]; Curto et al. (1999)): 118.7 ± 12 µg/mL
mutagenic activity [9]: lacking the mutagenic activity

Nc1ccc2c(c1)CCC2 [ID # 079]
IC50 (mammalian tyrosinase [1]): 73 µM
IC50 (Mel-Ab melanocytes [2]; Mus musculus, Mel-Ab): 71 µM
IC50 (Mel-Ab melanocytes [3]; Mus musculus, Mel-Ab): 472 µM

COc1cccc(S)c1 [ID # 099]
IC50 (mammalian tyrosinase [1]): 53 µM
IC50 (Mel-Ab melanocytes [2]; Mus musculus, Mel-Ab): 85 µM
IC50 (Mel-Ab melanocytes [3]; Mus musculus, Mel-Ab): 202 µM
wavelength of maximum absorbency λmax [4]: 265 nm
compound extinction coefficient ε [4]: 3000 OD/M × cm

Oc1ccc2[nH]ccc2c1 [ID # 026]
IC50 (mammalian tyrosinase [1]): 54 µM
IC50 (Mel-Ab melanocytes [2]; Mus musculus, Mel-Ab): 153 µM
IC50 (Mel-Ab melanocytes [3]; Mus musculus, Mel-Ab): 367 µM

COc1ccc(S)cc1OC [ID # 103]
IC50 (mammalian tyrosinase [1]): 8 µM
IC50 (Mel-Ab melanocytes [2]; Mus musculus, Mel-Ab): 8 µM
IC50 (Mel-Ab melanocytes [3]; Mus musculus, Mel-Ab): > 1000 µM
wavelength of maximum absorbency λmax [4]: 250 nm
compound extinction coefficient ε [4]: 4300 OD/M × cm

CC(=S)Nc1ccccc1 [ID # 054]
IC50 (mammalian tyrosinase [1]): 16 µM
IC50 (Mel-Ab melanocytes [2]; Mus musculus, Mel-Ab): 16 µM
IC50 (Mel-Ab melanocytes [3]; Mus musculus, Mel-Ab): > 1000 µM

COC(=O)c1cccc(N)c1 [ID # 092]
IC50 (mammalian tyrosinase [1]): 79 µM
IC50 (Mel-Ab melanocytes [2]; Mus musculus, Mel-Ab): 236 µM
IC50 (Mel-Ab melanocytes [3]; Mus musculus, Mel-Ab): > 1000 µM

COc1ccc(C(N)=S)cc1 [ID # 100]
IC50 (mammalian tyrosinase [1]): 32 µM
IC50 (Mel-Ab melanocytes [2]; Mus musculus, Mel-Ab): 62 µM
IC50 (Mel-Ab melanocytes [3]; Mus musculus, Mel-Ab): > 1000 µM

CC(=O)n1c(=S)[nH]c2ccccc21 [ID # 205]
IC50 (mammalian tyrosinase [1]): 0.5 µM
IC50 (Mel-Ab melanocytes [2]; Mus musculus, Mel-Ab): 8.3 µM
IC50 (Mel-Ab melanocytes [3]; Mus musculus, Mel-Ab): 35 µM

Sc1nc2ccccc2[nH]1 [ID # 138]
IC50 (mammalian tyrosinase [1]): 0.25 µM
wavelength of maximum absorbency λmax [4]: 300 nm
compound extinction coefficient ε [4]: 14300 OD/M × cm

COc1ccc(CS)cc1 [ID # 082]
IC50 (mammalian tyrosinase [1]): 5 µM
IC50 (Mel-Ab melanocytes [2]; Mus musculus, Mel-Ab): 81 µM
IC50 (Mel-Ab melanocytes [3]; Mus musculus, Mel-Ab): 500 µM
wavelength of maximum absorbency λmax [4]: 275 nm
compound extinction coefficient ε [4]: 1000 OD/M × cm

Cc1cccc2[nH]c(S)nc12 [ID # 140]
IC50 (mammalian tyrosinase [1]): 0.12 µM
IC50 (Mel-Ab melanocytes [2]): 2.4 µM
IC50 (Mel-Ab melanocytes [3]): > 1000 µM
wavelength of maximum absorbency λmax [4]: 305 nm
compound extinction coefficient ε [4]: 6300 OD/M × cm

S=c1[nH]c2cccnc2[nH]1 [ID # 135]
IC50 (mammalian tyrosinase [1]): 4 µM
IC50 (Mel-Ab melanocytes [2]): 256 µM
IC50 (Mel-Ab melanocytes [3]): > 1000 µM

COc1ccc(OC)c(S)c1 [ID # 093]
IC50 (mammalian tyrosinase [1]): 500 µM
IC50 (Mel-Ab melanocytes [2]): 200 µM
IC50 (Mel-Ab melanocytes [3]): 200 µM
wavelength of maximum absorbency λmax [4]: 305 nm
compound extinction coefficient ε [4]: 2700 OD/M × cm

Oc1ccc2c(c1)OCO2 [ID # 009]
IC50 (mammalian tyrosinase [1]): 98 µM
IC50 (Mel-Ab melanocytes [2]; Mus musculus, Mel-Ab): 209 µM
IC50 (Mel-Ab melanocytes [3]; Mus musculus, Mel-Ab): 775 µM

CC(=O)Nc1ccc(S)cc1 [ID # 083]
IC50 (mammalian tyrosinase [1]): 19 µM
IC50 (Mel-Ab melanocytes [2]; Mus musculus, Mel-Ab): 82 µM
IC50 (Mel-Ab melanocytes [3]; Mus musculus, Mel-Ab): 542 µM
wavelength of maximum absorbency λmax [4]: 265 nm
compound extinction coefficient ε [4]: 4700 OD/M × cm

[Se]=c1[nH]c2ccccc2[nH]1 [ID # 098]
IC50 (mammalian tyrosinase [1]): 0.8 µM
IC50 (Mel-Ab melanocytes [2]): 14 µM
IC50 (Mel-Ab melanocytes [3]): 132 µM

O=C(O)c1cc(O)ccc1O [GA, 2,5-dihydroxybenzoic acid]
mutagenic activity [9]: lacking the mutagenic activity

NCCc1cccs1 [ID # 073]
IC50 (mammalian tyrosinase [1]): > 1000 µM
IC50 (Mel-Ab melanocytes [2]; Mus musculus, Mel-Ab): 100 µM
IC50 (Mel-Ab melanocytes [3]; Mus musculus, Mel-Ab): > 1000 µM

COc1cccc2[nH]c(S)nc12 [ID # 084]
IC50 (mammalian tyrosinase [1]): 0.07 µM
IC50 (Mel-Ab melanocytes [2]): 1.6 µM
IC50 (Mel-Ab melanocytes [3]): > 1000 µM
wavelength of maximum absorbency λmax [4]: 310 nm
compound extinction coefficient ε [4]: 10000 OD/M × cm
